From PMC8289695 (Cell Reports, 2021)

System: SARS-CoV-2
Format: cell-based, strain USA_WA1/2020
Settings: for time of addition: single treatment 1 h prior to infection, compound removed prior to infection: VPS34-IN1 and PIK-III at 5 μM

Row | Structure (SMILES) | time of addition: single treatment 1 h prior to infection, compound removed prior to infection | time of addition: dosing at 2 hpi or 4 hpi
1 | Nc1ncc(-c2ccnc(Nc3ccncc3)n2)c(CC2CC2)n1 [PIK-III] | inhibited SARS-CoV-2 replication | 
2 | CCCCCCCCCCC[C@@H](C[C@@H]1OC(=O)[C@H]1CCCCCC)OC(=O)[C@H](CC(C)C)NC=O [orlistat] | minimal efficacy | remained inhibitory
3 | CC(C)(O)CNc1ncc(-c2ccnc(Nc3ccnc(Cl)c3)n2)c(CC2CC2)n1 [VPS34-IN1] | inhibited SARS-CoV-2 replication | 
4 | CCC/C=C/C/C=C/C=C/C=N/NN=O [triacsin C] | minimal efficacy | remained inhibitory
